Test results: PMC5510868 (PLoS ONE, 2017)
“Also recorded” adds a separate entry of the source.

Tests used:
[1] = Serum metabolite concentrations and parent compound/metabolite ratios at baseline and in the third trimester (TDM, linear mixed model); conditions: for Change from baseline conc., Estimate (parent compound or metabolite) / Parent compound / metabolite ratio (PMR), change from baseline, estimate: baseline to third trimester (gestational week 34); for Baseline conc., Estimate (parent compound or metabolite) / Parent compound / metabolite ratio (PMR), baseline estimate: day 0 (non-pregnant); for Baseline conc., Estimate (parent compound or metabolite) / Loge serum concentration, Intercept estimate (parent compound or metabolite): only analyses with metabolite data; for Baseline conc., Estimate (parent compound or metabolite): dose-adjusted to DDD; for Parent compound / metabolite ratio (PMR), third trimester estimate: gestational week 34; for Loge PMR, Intercept estimate / Loge PMR, Change per gestational week estimate: loge-transformed parent compound/metabolite ratio; for Loge PMR, Intercept estimate: baseline; for Loge PMR, Change per gestational week estimate / Loge serum concentration, Change per gestational week estimate (parent compound or metabolite): per week of pregnancy; for Loge serum concentration, Intercept estimate (parent compound or metabolite) / Loge serum concentration, Change per gestational week estimate (parent compound or metabolite): loge-transformed; for Loge serum concentration, Intercept estimate (parent compound or metabolite): baseline (day 0 of pregnancy); for Change of parent compound or metabolite serum concentration in pregnancy (in words): analyses with metabolite data (Table 3); for Parent compound / metabolite ratio in mid third trimester lower than baseline: value printed as size of the decline
Description: Quantification of the drug concentrations was performed with liquid chromatography-mass spectrometry/tandem mass spectrometry (LC-MS/LC-MS/MS). […] In brief, the drugs were extracted from serum by liquid-liquid extraction, using a mixture of hexane, acetonitrile and/or butanol, or dichloromethane and isopropanol. Thereafter, the analytes were separated on C18 columns using methanol, acetonitrile, formic acid or ammonium acetate as mobile phases, and quantified on LC-MS or LC-MS-MS systems. Calibration curves were constructed for each assay with drug-free human serum by the addition of varying concentrations of the antidepressants and their respective metabolites.
Serum concentrations in ng/mL were divided by the daily dose used by the person at the time of sampling, providing a serum concentration/dose ratio, and then multiplied by the defined daily dose (DDD), which is the assumed average maintenance dose per day for that drug used for its main indication in adults [28]. […] All concentrations presented and discussed in this article, including tables and figures, are dose-adjusted to the DDD of the drug.
For drugs where both the parent drug and the metabolite were measured, parent drug/metabolite concentration ratios during pregnancy were compared to baseline values as described above; ratios were loge-transformed and fitted into a linear mixed model, estimating the baseline ratios and the effect of each gestational week.
All model parameters, including variance components, were estimated by the method of maximum likelihood using STATA 13 command “mixed”. […] P values less than 0.05 were considered statistically significant.

[2] = cited from earlier work
[3] = Dose-adjusted serum antidepressant concentrations across pregnancy compared to the women's own baseline (routine TDM, LC-MS, linear mixed model); assay type: in vivo, human; conditions: for Change of serum concentration in pregnancy compared to baseline (in words): fluoxetine and venlafaxine = active moiety; for Serum concentration in third trimester lower than baseline (reduction): mid third trimester (gestational week 34) vs baseline, value given as size of the reduction
Description: After obtaining approval from the Regional Committee for Medical and Health Research Ethics in Mid Norway, the Norwegian Centre for Research Data (Data Protection Official), the Norwegian Directorate of Health and the Medical Birth Registry of Norway (MBRN) publication council, serum concentration data for antidepressants were collected from the two largest TDM services for psychotropic drugs in Norway (i.e. Department of Clinical Pharmacology at St. Olav University Hospital in Trondheim, and Center for Psychopharmacology at Diakonhjemmet Hospital in Oslo). […] The antidepressant TDM data contain serum concentration measurements taken in a naturalistic setting from psychiatry inpatients and outpatients. In addition to measured serum concentrations, the databases contain information obtained from the requisition forms, such as the prescribed antidepressant dose, time of last drug intake, time of blood sampling, and types and doses of concomitant drugs.
First, a combined laboratory TDM file was created, containing all serum concentration measurements (for any drug) in the period October 1999 –December 2011 for all women of reproductive age (i.e. born 1950–2000). […] Using the unique 11-digit identification number assigned to all individuals living in Norway, the MBRN could identify all pregnant women in the TDM data set. […] For the current study we retrieved the following information: the personal identification number, the drug analysed, the measured drug serum concentration, time of last dose, time of sampling, drug dose, concomitant drug use, other clinical information, name of the responsible physician, gestational week at the time of sampling (calculated from the sampling date and the pregnancy onset date as determined by obstetric ultrasound if available, or by last menstruation), and date of delivery.
If the requisition form lacked information on drug dose the authors contacted the responsible physician, who attempted to obtain this information from the medical record. If we were unable to retrieve this information, the analysis was excluded.
Having identified the pregnant women and their individual pregnancy periods in the extracted data file, we used the original TDM databases to retrieve serum concentration measurements before and after pregnancy from the same women, to serve as baseline observations for each of the included subjects. […] These analyses were not used in the statistical model, only for visual comparison. The remaining 420 analyses were used for the statistical comparisons.
Since multiple measurements were available from the same patient a linear mixed model was used. […] Baseline measurements were set to gestational week 0 in the model. Then, the effect of gestational week on concentration compared to baseline could be estimated for each drug.
Data are presented as means with 95% confidence intervals.

Row | Compound | Change from baseline conc., Estimate (parent compound or metabolite) [1] | Parent compound / metabolite ratio (PMR), change from baseline, estimate [1] | Baseline conc., Estimate (parent compound or metabolite) [1] [ng/mL] | Parent compound / metabolite ratio (PMR), baseline estimate [1] | Parent compound / metabolite ratio (PMR), third trimester estimate [1] | Loge PMR, Intercept estimate [1] | Loge PMR, Change per gestational week estimate [1] | Loge serum concentration, Intercept estimate (parent compound or metabolite) [1] | Loge serum concentration, Change per gestational week estimate (parent compound or metabolite) [1] | Change of parent compound or metabolite serum concentration in pregnancy (in words) [1] | Change of serum concentration in pregnancy compared to baseline (in words) ([3]; dose-adjusted) | also measured
1 | COCCCC/C(=N\OCCN)c1ccc(C(F)(F)F)cc1 [Fluvoxamine] |  |  |  |  |  |  |  |  |  |  |  | Serum concentration in pregnancy as share of pre-pregnancy levels ([3]; drop to about this share of pre-pregnancy levels): about 50%; Serum concentration in third trimester lower than baseline (reduction) [3]: 56%
2 | CN[C@H]1CC[C@@H](c2ccc(Cl)c(Cl)c2)c2ccccc21 [Sertraline] | +83% | -20% | 8.6 | 0.5 | 0.4 | -0.764 | -0.006 | 2.147 | 0.018 | increasing levels | statistically significant increase | Parent compound / metabolite ratio in mid third trimester lower than baseline [1]: 20%; Change of concentrations in pregnancy in previous studies (in words) ([2]; eight and six pregnancies): variable/non-significant observations
3 | N[C@H]1CC[C@@H](c2ccc(Cl)c(Cl)c2)c2ccccc21 [Desmethylsertraline] | +120% |  | 18.4 |  |  |  |  | 2.914 | 0.023 | increasing levels |  | 
4 | COc1ccc(C(CN(C)C)C2(O)CCCCC2)cc1 (centres unmarked) [Venlafaxine] | -40% |  | 35.8 |  |  | -0.927 | -0.011 | 3.577 | -0.015 | trend towards a statistically significant decline | remain largely unchanged | Reduction in plasma levels in pregnancy compared to baseline ([2]; case report, ref Klier et al. [16]): more than 50%; Reduction in levels in pregnancy ([2]; prospective study of seven pregnancies, ref ter Horst et al. [24]): 13%; Change of serum concentration in pregnancy compared to baseline (in words) ([3]; dose-adjusted, listed as venlafaxine): did not change significantly; also recorded: not statistically significant
5 | CNCC[C@H](Oc1ccc(C(F)(F)F)cc1)c1ccccc1 [S-fluoxetine] |  |  |  |  |  |  |  |  |  |  |  | Enantiomer concentration change in pregnancy, chiral analysis (in words) ([2]; in vivo): declined more than R-fluoxetine

Second part, led by results:

Row | Change from baseline conc., Estimate (parent compound or metabolite) [1] | Parent compound / metabolite ratio (PMR), change from baseline, estimate [1] | Baseline conc., Estimate (parent compound or metabolite) [1] [ng/mL] | Parent compound / metabolite ratio (PMR), baseline estimate [1] | Parent compound / metabolite ratio (PMR), third trimester estimate [1] | Loge PMR, Intercept estimate [1] | Loge PMR, Change per gestational week estimate [1] | Loge serum concentration, Intercept estimate (parent compound or metabolite) [1] | Loge serum concentration, Change per gestational week estimate (parent compound or metabolite) [1] | Change of parent compound or metabolite serum concentration in pregnancy (in words) [1] | Compound | Change of serum concentration in pregnancy compared to baseline (in words) ([3]; dose-adjusted) | also measured
6 | +24% | +40% | 8.4 | 1.8 | 2.5 | 0.581 | 0.010 | 2.129 | 0.006 |  | CN(C)CCC[C@@]1(c2ccc(F)cc2)OCc2cc(C#N)ccc21 [Escitalopram] | did not change significantly; also recorded: not statistically significant; also recorded: remain largely unchanged; also recorded: close to zero | Parent compound / metabolite ratio (PMR), change from baseline, estimate ([1]; listed as escitalopram): 40%; Change of concentrations throughout pregnancy (in words) ([2]; five pregnancies, ref Sit et al. [19]): only minor declines or no change; concentration at 4 gestational week ([3]; female, human, serum, 10 mg/day, one analysis in week 4, dose-adjusted, read-out: Observed serum concentration, outlier not shown in Fig 2): 36 ng/mL; concentration at 5 gestational week ([3]; female, human, serum, 10 mg/day, one analysis in week 5, dose-adjusted, read-out: Observed serum concentration, outlier not shown in Fig 2): 40 ng/mL; Observed serum concentration, outlier not shown in Fig 2 ([3]; one analysis in week 0 (baseline), dose-adjusted): 36 ng/mL
7 | -13% |  | 91.5 |  |  |  |  | 4.516 | -0.004 | did not change | CN(C)CC(c1ccc(O)cc1)C1(O)CCCCC1 (centres unmarked) [O-desmethylvenlafaxine] |  | Change of metabolite levels in pregnancy (in words) ([2]; prospective study of seven pregnancies): no change
8 | -33% |  | 12.6 |  |  |  |  | 2.534 | -0.012 |  | CNCCCC1(c2ccc(F)cc2)OCc2cc(C#N)ccc21 (centres unmarked) [Desmethylcitalopram] |  | 
9 | 0% |  | 83.7 |  |  |  |  | 4.427 | 0.000 | remain largely unchanged | NCCC(Oc1ccc(C(F)(F)F)cc1)c1ccccc1 (centres unmarked) [Norfluoxetine] |  | 
10 | -31% | -36% | 77.7 | 1.0 | 0.6 | -0.045 | -0.013 | 4.353 | -0.011 | decline | CNCCC(Oc1ccc(C(F)(F)F)cc1)c1ccccc1 (centres unmarked) [Fluoxetine] | did not change significantly; also recorded: not statistically significant; also recorded: remain largely unchanged; also recorded: no major decline | Parent compound / metabolite ratio in mid third trimester lower than baseline [1]: 36%; Third trimester concentrations of the active moiety lower than baseline ([2]; fluoxetine plus norfluoxetine, 11 pregnancies, ref Heikkinen et al.): 32%
11 | -39% | -13% | 32.3 | 2.6 | 2.3 | 0.973 | -0.004 | 3.475 | -0.015 |  | CN(C)CCCC1(c2ccc(F)cc2)OCc2cc(C#N)ccc21 (centres unmarked) [Citalopram] | remain largely unchanged | Change of parent compound / metabolite ratio in pregnancy (in words) ([1]; third trimester vs baseline): did not reach statistical significance; Third trimester concentrations lower than baseline values ([2]; 11 pregnancies, ref Heikkinen et al. [13]): 42%; Third trimester concentrations lower than baseline ([2]; two pregnancies, ref Sit et al. [19]): 26%; Serum concentration in third trimester lower than baseline (reduction) [3]: 24%
